From US12070457B2, “Substituted pyridines, pyridazines, pyrimidines, and 1,2,3-triazines as bruton's tyrosine kinase inhibitors” (HUTCHISON MEDIPHARMA LIMITED, priority 2020, dated 2024)

Experiments:
[1] = Stability test in liver microsomes (rat); format: in vitro ADME; settings: 1 μM compound; for stability in rat liver microsomes compared with reference GDC-0853: 0.5 mg/mL liver microsomes, 30 minutes incubation; for RLM, percentage of remaining compound after 30 minutes of incubation: rat liver microsomes
Excerpt: (§1) Example 5 Stability Test in Liver Microsomes
(§2) Both male CD-1 mouse pooled liver microsomes and male SD rat pooled liver microsomes were purchased from BioreclamationIVT Corporation, USA.
(§3) Phenacetin, glucose-6-phosphate dehydrogenase (G-6-PDH) and nicotinamide adenine dinucleotide phosphate (NADP) were all purchased from Sigma-Aldrich Corporation, USA. Glucose-6-phosphate (G-6-P) was purchased from Shanghai Eybridge Chemical Technology Co., Ltd.
(§4) Ten mM test compound stock solution: a certain amount of test compound was weighed, and dissolved with an appropriate volume of DMSO to prepare a stock solution with a concentration of 10 mM for use.
(§5) Reaction stopping solution: an appropriate amount of internal standard compound phenacetin was dissolved in acetonitrile to prepare a reaction stopping solution with a concentration of 1000 ng/mL for use at room temperature.
(§6) The test compound stock solution was diluted with an organic solvent (usually a mixture of acetonitrile, methanol and water with various ratios, depending on the solubility of the compound, if necessary, 1 N hydrochloric acid or 1 N sodium hydroxide would be added to facilitate solubilization) to the 0.1 mM (the final concentration of the compound in the reaction system was 1 μM) and the concentration percentage of the organic solvents in the incubation system no more than 1% (wherein the percentage of DMSO was required to be no more than 0.1%). An appropriate amount of 100 mM NADP, 500 mM G-6-P and 100 Unit/mL G-6-PDH were mixed and diluted with ultrapure water (the final system contains 1 mM NADP, 5 mM G-6-P and 1 Unit/mL G-6-PDH), pre-incubated in a 37° C. water bath for 10 minutes and then placed on ice for use as a NADPH regeneration solution. 20 mg/mL liver microsomes solution and 200 mM phosphate buffer was mixed, and diluted with ultrapure water to give a liver microsomes solution containing 2.5 mg/mL liver microsomes (the final concentration of the reaction system is 0.5 mg/mL) and 50 mM phosphate buffer. The diluted liver microsomes solution was mixed with 0.1 mM compound solution, a mixture of 100 mM EDTA, 300 mM MgCl2 solution, 200 mM phosphate buffer (the final system was 3 mM MgCl2, 1 mM EDTA and 50 mM phosphate buffer) and water in an appropriate volume was added. Finally, the NADPH regeneration solution was added, then the reaction solution was placed in a 37° C. water bath to start the reaction (the reaction time was 30 minutes), and the reaction was stopped by adding the ice-cold acetonitrile reaction stopping solution containing the internal standard. The 0-minute sample was not incubated in a 37° C. water bath, and its difference from the 30-minute sample further lies in that the ice-cold acetonitrile reaction stopping solution containing the internal standard was added first, and then the NADPH regeneration solution was added. The sample added with the reaction stopping internal standard solution was vortexed and mixed well, and then centrifuged at 4400 rpm for 10 minutes. The supernatant was taken and diluted ten times with 50% methanol for LC-MS/MS analysis.
(§7) LC-MS/MS was used to determine the concentration of the compound in the sample. The percentage of the remaining compound after 30 minutes of incubation comparing with that in the 0-minute sample was calculated using the peak area ratio of the compound to the internal standard as an indicator, to evaluate the metabolic stability of the compound.
(§8) Instrument: API4500, API4000 or LTQ Mass Spectrometer; the liquid phase is UHPLC system (Shimadzu LC-30 AD, model Nexra X2) including liquid delivery unit, column thermostat, detector and autosampler; or Agilent 1200 Binary Pump series HPLC and CTC Autosampler.
(§9) Chromatographic column: Waters XSELECT Hss T3 C18 (2.5 μm, 2.1×50 mm) or […] (5 μm, 2.0×50 mm)
(§10) Mobile phase: • A: water with 0.1% FA (formic acid) (with or without 0.1% ACN (acetonitrile)) • B: acetonitrile with 0.1% FA (formic acid).

[2] = Stability test in liver microsomes (mouse); format: in vitro ADME; settings: 1 μM compound; for stability in mouse liver microsomes compared with reference GDC-0853: 0.5 mg/mL liver microsomes, 30 minutes incubation; for MLM, percentage of remaining compound after 30 minutes of incubation: mouse liver microsomes
Excerpt: as §1, §2, §3, §4, §5, §6, §7, §8, §9, §10

RLM, percentage of remaining compound after 30 minutes of incubation [1] [%] | MLM, percentage of remaining compound after 30 minutes of incubation [2] [%] | SMILES | stability in rat liver microsomes compared with reference GDC-0853 [1] | stability in mouse liver microsomes compared with reference GDC-0853 [2]
91.8 | 83.4 | CC1CCc2cc3c(=O)n(-c4nccc(-c5cc(Nc6ccc(N7CCN(C8COC8)C[C@@H]7C)cn6)c(=O)n(C)c5)c4CO)ccn3c2C1 (mixture of isomers) [Compound 78] | better than that of the reference GDC-0853 | better than that of the reference GDC-0853
98.9 | 90.5 | C[C@@H]1CN(c2ccc(Nc3cc(-c4ccnc(-n5ccn6c7c(cc6c5=O)CCC7)c4CO)cn(C)c3=O)nc2)[C@@H](C)CN1C1COC1 [Compound 2, 2-(5-((5-((2S,5R)-2,5-dimethyl-4-(oxetan-3-yl)piperazin-1-yl)pyridin-2-yl)amino)-3′-(hydroxymethyl)-1-methyl-6-oxo-1,6-dihydro-[3,4′-bispyridin]-2′-yl)-7,8-dihydro-2H-cyclopenta[4,5]pyrrolo[1,2-α]pyrazin-1(6H)-one] | better than that of the reference GDC-0853 | better than that of the reference GDC-0853
89.5 | 95.7 | Cn1cc(-c2ccnc(-n3ccn4c5c(cc4c3=O)CC(C)(C)C5)c2CO)cc(Nc2ccc(N3CCN(C4COC4)CC3)cn2)c1=O [Compound 9] | better than that of the reference GDC-0853 | better than that of the reference GDC-0853
97.1 | 93.1 | C[C@H]1CN(C2COC2)CCN1c1cnc(Nc2cc(-c3ccnc(-n4ccn5c6c(cc5c4=O)CC(C)(C)C6)c3CO)cn(C)c2=O)nc1 [Compound 44] | better than that of the reference GDC-0853 | better than that of the reference GDC-0853
93.7 | 89.5 | C[C@H]1CN(C2COC2)CCN1c1ccc(Nc2cc(-c3ccnc(-n4ccn5c6c(cc5c4=O)CCC(F)(F)C6)c3CO)cn(C)c2=O)nc1 [Compound 56] | better than that of the reference GDC-0853 | better than that of the reference GDC-0853
~100 | 97.1 | C[C@H]1CN(C2COC2)CCN1c1ccc(Nc2cc(-c3ccnc(-n4ccn5c6c(cc5c4=O)CC(F)(F)CC6)c3CO)cn(C)c2=O)nc1 [Compound 58] | better than that of the reference GDC-0853 | better than that of the reference GDC-0853
89.6 | 85.8 | C[C@H]1CN(C2COC2)CCN1c1ccc(Nc2cc(-c3ccnc(-n4cnn5c6c(cc5c4=O)CC(C)(C)C6)c3CO)cn(C)c2=O)nc1 [Compound 63] | better than that of the reference GDC-0853 | better than that of the reference GDC-0853
92.1 | 95.6 | C[C@H]1CN(C2COC2)CCN1c1ccc(Nc2cc(-c3ccnc(-n4ccn5c6c(cc5c4=O)CCC6)c3CO)cn(C)c2=O)nc1 [Compound 64] | better than that of the reference GDC-0853 | better than that of the reference GDC-0853
87.7 | 97.5 | C[C@H]1CN(C2COC2)CCN1c1ccc(Nc2cc(-c3ccnc(-n4ccn5c(cc6ccccc65)c4=O)c3CO)cn(C)c2=O)nc1 [Compound 74] | better than that of the reference GDC-0853 | better than that of the reference GDC-0853
84.0 | 83.0 | C[C@H]1CN(C2COC2)CCN1c1ccc(Nc2cc(-c3ccnc(-n4ccn5c(cc6cc(F)ccc65)c4=O)c3CO)cn(C)c2=O)nc1 [Compound 75] | better than that of the reference GDC-0853 | better than that of the reference GDC-0853
~100 | ~100 | C[C@H]1CN(C2COC2)CCN1c1ccc(Nc2cc(-c3ccnc(-n4ncn5c6c(cc5c4=O)CC(C)(C)C6)c3CO)cn(C)c2=O)nc1 [Compound 79] | better than that of the reference GDC-0853 | better than that of the reference GDC-0853
